One test concerns RS4-11. Briefly: Cell growth inhibition, 4-day proliferation assay, RS4-11. Type of test: cell-based. The note with it: read-out: Cell Viability (IC50, μM) RS4-11. The method, then: (§1) The effect of representative Compounds of the Disclosure on cell viability was determined in a 4-day proliferation assay. Cells were maintained in the appropriate culture medium with 10% FBS at 37° C. and an atmosphere of 5% CO2. All the cell lines were used within three months of thawing fresh vials.
(§2) Cells were seeded in 96-well flat bottom (Corning COSTAR, Corning, N.Y., cat #3595) or white opaque cell culture plates (BD Falcon, cat #353296) at a density of 3,000-10,000 cells/well in 75 μl of culture medium. Compounds were serially diluted in the appropriate medium, and 75 μl of the diluted compounds were added to the appropriate wells of the cell plate. After the addition of compounds, the cells were incubated at 37° C. in an atmosphere of 5% CO2 for 4 days. Cell viability was determined using the CellTiter-Glo® Luminescent Cell Viability Assay Kit (Promega, Madison, Wis.) for leukemia cells and WST (2-(2-methoxy-4-nitrophenyl)-3-(4-nitrophenyl)-5-(2,4-disulfophenyl)-2H-tetrazolium, monosodium salt) Cell Counting-8 Kit (Dojindo Molecular Technologies, Inc., Rockville, Md.) for adhenrent cells according to the manufacturers' instructions. […]
(§3) For CellTiter-Glo assay (suspension cells), 100 μl of CellTiter-Glo® Reagent was added to each well, and then the plates were incubated at room temperature for 10-20 minutes. The luminescent signal was measured using a Tecan Infinite M1000 multimode microplate reader (Tecan, Morrisville, N.C.). The readings were normalized to the DMSO-treated cells and the IC50 was calculated by nonlinear regression (four parameters sigmoid fitted with variable slope, least squares fit, and no constraint) analysis using the GraphPad Prism 5 software. See US 2014/0256706.

The target of another test is T1, recombinant BRD4 BD2 (Homo sapiens, UniProt O60885).
T1 construct: recombinant BRD4 BD1 and BRD4 BD2 proteins
The test can be described thus: Competitive fluorescence-polarization (FP) binding assay, BRD4 BD2. The conditions noted are these: protein 6 nM, probe 1.5 nM.

The subject of another test is MOLM-13. Briefly: Cell growth inhibition, 4-day proliferation assay, MOLM-13. The format is cell-based. The note with it: read-out: Cell Viability (IC50, μM) MOLM-13. The method, then: as §1, §2, §3
In the next test the target is T2, recombinant BRD4 BD1 (Homo sapiens, UniProt O60885).
T2 construct: recombinant BRD4 BD1 and BRD4 BD2 proteins
The test can be described thus: Competitive fluorescence-polarization (FP) binding assay, BRD4 BD1.

Where [1] appears, read: FP competitive binding, protein 10 nM, probe 1.5 nM, read-out: IC50 (nM) BRD4 BD1.
[2] abbreviates: Homo sapiens, RS4-11, 96 h, 4 days incubation, RS4-11 cells.
[3] abbreviates: Homo sapiens, MOLM-13, 96 h, 4 days incubation, MOLM-13 cells.
Setting [4] is: 4 days incubation, RS4-11 cells.
Where [5] appears, read: 4 days incubation, MOLM-13 cells.

Each structure is given as a SMILES string. “And” between values parts separate entries of the source, which are not always exact repeats. Equal values may be shown once. Read-outs that look alike come from different tables or passages of the source.

Procedure for recombinant BRD4 BD1: Fluorescence Polarization (FP) competitive binding studies were carried out using a FAM labeled fluorescent probe, see Cpd. […] Equilibrium dissociation constants (Kd) values of the fluorescent probe to BRD4 BD1 and BD2 proteins were determined from protein saturation experiments by monitoring the total fluorescence polarization of mixtures composed with the fluorescent probe at a fixed concentration and proteins with increasing concentrations up to full saturation. […] Plates were incubated at room temperature for 30 minutes with gentle shaking to assure equilibrium.
The IC50 and Ki values of compounds were determined in a competitive binding experiment. […] Mixtures of 10 μl of the tested compounds in assay buffer with 40% Ethylene Glycol and 190 μl of preincubated protein/probe complex solution in the assay buffer (100 mM potassium phosphate, pH 6.5, 0.01% Triton X-100) were added into assay plates which were incubated at room temperature for 30 minutes with gentle shaking. Final concentrations of proteins were 10 and 6 nM in assays for BRD4 BD1 and BD2, respectively. […] FP values were measured as described above. IC50 values were determined by nonlinear regression fitting of the competition curves.
Procedure for recombinant BRD4 BD2: Fluorescence Polarization (FP) competitive binding studies were carried out using a FAM labeled fluorescent probe, see Cpd. […] Equilibrium dissociation constants (Kd) values of the fluorescent probe to BRD4 BD1 and BD2 proteins were determined from protein saturation experiments by monitoring the total fluorescence polarization of mixtures composed with the fluorescent probe at a fixed concentration and proteins with increasing concentrations up to full saturation. Serial dilutions of testing proteins were mixed with the fluorescent probe to a final volume of 200 μl in the assay buffer (100 mM phosphate buffer, pH=6.5, 0.01% Triton X-100 (Sigma, 282103) being added right before assays). Final fluorescent probe concentration was 1.5 nM for both proteins. Plates were incubated at room temperature for 30 minutes with gentle shaking to assure equilibrium. FP values in millipolarization units (mP) were measured using the Infinite M-1000 plate reader (Tecan U.S., Research Triangle Park, N.C.) in Microfluor 1 96-well, black, round-bottom plates (Thermo Scientific, Waltham, Mass.) at an excitation wavelength of 485 nm and an emission wavelength of 530 nm.
The IC50 and Ki values of compounds were determined in a competitive binding experiment. […] Mixtures of 10 μl of the tested compounds in assay buffer with 40% Ethylene Glycol and 190 μl of preincubated protein/probe complex solution in the assay buffer (100 mM potassium phosphate, pH 6.5, 0.01% Triton X-100) were added into assay plates which were incubated at room temperature for 30 minutes with gentle shaking. Final concentrations of proteins were 10 and 6 nM in assays for BRD4 BD1 and BD2, respectively. Final probe concentration is 1.5 nM in both assays. […] FP values were measured as described above. IC50 values were determined by nonlinear regression fitting of the competition curves.

Turning to `Cc1sc2c(c1Nc1ccccc1)COCc1nnc(C)n1-2` [Cpd. No. 6, 2,9-dimethyl-N-phenyl-4H,6H-thieno[2,3-e][1,2,4]triazolo[3,4-c][1,4]oxazepin-3-amine], the IC50 (as a rule, the concentration needed to halve the response being measured) was 4.5 µM with RS4-11 (Homo sapiens, RS4-11, 96 h); 346 nM and 457 nM on recombinant BRD4 BD2; more than 5 µM with MOLM-13 (Homo sapiens, MOLM-13, 96 h); 317 nM and 629 nM at recombinant BRD4 BD1 (setting [1]).
On to `Cc1sc2c(c1Nc1cc(C3CC3)nn1C)COCc1nnc(C)n1-2` [Cpd. No. 7, N-(3-cyclopropyl-1-methyl-H-pyrazol-5-yl)-2,9-dimethyl-4H,6H-thieno[2,3-e][1,2,4]triazolo[3,4-c][1,4]oxazepin-3-amine], for which the IC50 is 4.2 µM in the test with RS4-11 (setting [2]); 1160 nM and 1260 nM at recombinant BRD4 BD2; 2.8 µM in the test on MOLM-13 (setting [3]); 171 nM and 311 nM at recombinant BRD4 BD1 (setting [1]).
Turning to `Cc1sc2c(c1Cc1ccccc1)CN(C(=O)OCc1ccccc1)[C@@H](C)c1nnc(C)n1-2` [Cpd. No. 12, benzyl (S)-3-benzyl-2,6,9-trimethyl-4H-thieno[3,2-f][1,2,4]triazolo[4,3-a][1,4]diazepine-5(6H)-carboxylate], the half-inhibitory concentration (IC50) in the test on RS4-11 (setting [2]) was 4.7 µM; at recombinant BRD4 BD2 it was 328 nM and 379 nM; with MOLM-13 (setting [3]) it was 4 µM; at recombinant BRD4 BD1 (setting [1]), 371 nM.
Consider `Cc1sc2c(c1Cc1ccccc1)CN(C(=O)OCc1ccccc1)Cc1nnc(C)n1-2` [Cpd. No. 14, benzyl 3-benzyl-2,9-dimethyl-4H-thieno[3,2-f][1,2,4]triazolo[4,3-a][1,4]diazepine-5(6H)-carboxylate], for which the IC50 with RS4-11 (setting [2]) was 2.4 µM; on recombinant BRD4 BD2, 118 nM and 145 nM; in the test on MOLM-13 (setting [3]) it was 1.9 µM; on recombinant BRD4 BD1 (setting [1]), 85 nM and 112 nM.
As for `Cc1sc2c(c1Cc1ccccc1)CNCc1nnc(C)n1-2` [Cpd. No. 15, 3-benzyl-2,9-dimethyl-5,6-dihydro-4H-thieno[3,2-f][1,2,4]triazolo[4,3-a][1,4]diazepine], the IC50 was 2.7 µM in the test with RS4-11 (setting [2]); 102 nM and 111 nM on recombinant BRD4 BD2; 2 µM in the test on MOLM-13 (setting [3]); 531 nM and 751 nM at recombinant BRD4 BD1 (setting [1]).
Turning to `Cc1nnc2n1-c1sc(C#Cc3cnn(C)c3)c(Cc3ccccc3)c1CO[C@H]2C` [Cpd. No. 85, (S)-3-benzyl-6,9-dimethyl-2-((1-methyl-1H-pyrazol-4-yl)ethynyl)-4,6-dihydrothieno[2,3-e][1,2,4]triazolo[3,4-c][1,4]oxazepine], the IC50 is 0.12 µM in the test on RS4-11 (setting [4]); 0.14 µM in the test with RS4-11 (setting [2]); 48.3 nM and 60.3 nM on recombinant BRD4 BD2; 0.1 µM with MOLM-13 (setting [5]); 0.16 µM in the test on MOLM-13 (setting [3]); 7.3 nM and 8.1 nM on recombinant BRD4 BD1 (setting [1]).
With `Cc1nnc2n1-c1sc(C#Cc3cncn3C)c(Cc3ccccc3)c1COC2` [Cpd. No. 86, 3-benzyl-9-methyl-2-((1-methyl-H-imidazol-5-yl)ethynyl)-4,6-dihydrothieno[2,3-e][1,2,4]triazolo[3,4-c][1,4]oxazepine], the IC50 in the test with RS4-11 (setting [2]) worked out at 0.2 µM; in the test on MOLM-13 (setting [3]) it was 0.14 µM.
The corresponding values for `Cc1nnc2n1-c1sc(C#Cc3ccncc3)c(Cc3ccccc3)c1COC2` [Cpd. No. 87, 3-benzyl-9-methyl-2-(pyridin-4-ylethynyl)-4,6-dihydrothieno[2,3-e][1,2,4]triazolo[3,4-c][1,4]oxazepine] are 0.21 µM and 0.14 µM.
Take `Cc1nnc2n1-c1sc(C#Cc3cccnc3)c(Cc3ccccc3)c1COC2` [Cpd. No. 88, 3-benzyl-9-methyl-2-(pyridin-3-ylethynyl)-4,6-dihydrothieno[2,3-e][1,2,4]triazolo[3,4-c][1,4]oxazepine]: the IC50 came out at 0.25 µM in the test on RS4-11 (Homo sapiens, RS4-11, 96 h) and 0.12 µM in the test with MOLM-13 (Homo sapiens, MOLM-13, 96 h).
Take `Cc1nnc2n1-c1sc(C#Cc3ccc(N)nc3)c(Cc3ccccc3)c1COC2` [Cpd. No. 89, 5-((3-benzyl-9-methyl-4,6-dihydrothieno[2,3-e][1,2,4]triazolo[3,4-c][1,4]oxazepin-2-yl)ethynyl)pyridin-2-amine]: the IC50 in the test with RS4-11 (setting [2]) is 0.62 µM; on recombinant BRD4 BD2, 315 nM; in the test with MOLM-13 (setting [3]), 0.28 µM; at recombinant BRD4 BD1 (setting [1]) it was 8.7 nM.
Regarding `Cc1nnc2n1-c1sc(-c3cn[nH]c3)c(Cc3ccccc3)c1COC2` [Cpd. No. 91, 3-benzyl-9-methyl-2-(1H-pyrazol-4-yl)-4H,6H-thieno[2,3-e][1,2,4]triazolo[3,4-c][1,4]oxazepine], the IC50 in the test with RS4-11 (setting [2]) came out at 1.2 µM; in the test on MOLM-13 (setting [3]), 1.2 µM; on recombinant BRD4 BD1 (setting [1]), 153 nM.
In the case of `Cc1nnc2n1-c1sc(-c3cnn(C)c3)c(Cc3ccccc3)c1COC2` [Cpd. No. 92, 3-benzyl-9-methyl-2-(1-methyl-H-pyrazol-4-yl)-4H,6H-thieno[2,3-e][1,2,4]triazolo[3,4-c][1,4]oxazepine], the IC50 in the test with RS4-11 (setting [2]) turned out to be 1.6 µM; with MOLM-13 (setting [3]) it was 1.6 µM; at recombinant BRD4 BD1 (setting [1]) it was 211 nM.
In the case of `Cc1nnc2n1-c1sc(C3CC3)c(Cc3ccccc3)c1COC2` [Cpd. No. 93, 3-benzyl-2-cyclopropyl-9-methyl-4H,6H-thieno[2,3-e][1,2,4]triazolo[3,4-c][1,4]oxazepine], the IC50 in the test with RS4-11 (setting [2]) and in the test with MOLM-13 (setting [3]) was more than 5 µM throughout.
In the case of `Cc1nnc2n1-c1sc(C#CCCO)c(Cc3ccccc3)c1COC2` [Cpd. No. 96, 4-(3-benzyl-9-methyl-4H,6H-thieno[2,3-e][1,2,4]triazolo[3,4-c][1,4]oxazepin-2-yl)but-3-yn-1-ol], the IC50 came out at 0.34 µM in the test with RS4-11 (setting [4]), 0.4 µM in the test with RS4-11 (setting [2]), 0.25 µM in the test with MOLM-13 (setting [5]) and 0.3 µM with MOLM-13 (setting [3]).
As for `Cc1nnc2n1-c1sc(CCCCO)c(Cc3ccccc3)c1COC2` [Cpd. No. 99, 4-(3-benzyl-9-methyl-4H,6H-thieno[2,3-e][1,2,4]triazolo[3,4-c][1,4]oxazepin-2-yl)butan-1-ol], the IC50 with RS4-11 (setting [2]) amounted to 2.2 µM; in the test on MOLM-13 (setting [3]) it was 2.9 µM; at recombinant BRD4 BD1 (IC50 (nM) BRD4 BD1), 367 nM.
As to `Cc1sc2c(c1Cc1cccc(F)c1)COCc1nnc(C)n1-2` [Cpd. No. 100, 3-(3-fluorobenzyl)-2,9-dimethyl-4H,6H-thieno[2,3-e][1,2,4]triazolo[3,4-c][1,4]oxazepine], the IC50 with RS4-11 (setting [2]) amounted to 2.3 µM; with MOLM-13 (setting [3]), 2.4 µM; on recombinant BRD4 BD1 (setting [1]), 208 nM.
Consider `Cc1sc2c(c1Cc1cccc(C#N)c1)COCc1nnc(C)n1-2` [Cpd. No. 101, 3-(3-cyanobenzyl)-2,9-dimethyl-4H,6H-thieno[2,3-e][1,2,4]triazolo[3,4-c][1,4]oxazepine], for which the IC50 was 3.6 µM with RS4-11 (setting [2]), more than 5 µM with MOLM-13 (setting [3]) and 832 nM at recombinant BRD4 BD1 (setting [1]).
Consider `Cc1sc2c(c1Cc1ccccc1F)COCc1nnc(C)n1-2` [Cpd. No. 102, 3-(2-fluorobenzyl)-2,9-dimethyl-4H,6H-thieno[2,3-e][1,2,4]triazolo[3,4-c][1,4]oxazepine], for which the IC50 in the test on RS4-11 (setting [2]) stood at 2.6 µM; in the test on MOLM-13 (setting [3]), 3.9 µM; at recombinant BRD4 BD1 (setting [1]), 222 nM.
In the case of `Cc1sc2c(c1Cc1ccc(F)cc1)COCc1nnc(C)n1-2` [Cpd. No. 103, 3-(4-fluorobenzyl)-2,9-dimethyl-4H,6H-thieno[2,3-e][1,2,4]triazolo[3,4-c][1,4]oxazepine], the IC50 in the test on RS4-11 (setting [4]) is 0.95 µM; in the test on RS4-11 (setting [2]) it was 1 µM; on recombinant BRD4 BD2, 213 nM; in the test with MOLM-13 (setting [5]), 0.67 µM; in the test with MOLM-13 (setting [3]) it was 1.1 µM; on recombinant BRD4 BD1 (setting [1]), 115 nM and 70.4 nM.
Regarding `Cc1sc2c(c1Cn1ccc3ccccc31)COCc1nnc(C)n1-2` [Cpd. No. 106, 3-((1H-indol-1-yl)methyl)-2,9-dimethyl-4H,6H-thieno[2,3-e][1,2,4]triazolo[3,4-c][1,4]oxazepine], the figures for the IC50 in the test on RS4-11 (setting [2]), in the test on MOLM-13 (setting [3]) and at recombinant BRD4 BD1 (setting [1]) were 1.5 µM, 2.6 µM and 283 nM, respectively.
As for `Cc1sc2c(c1Cc1ccccc1)COC(C)c1nnc(C)n1-2` (stereo not drawn) [Cpd. No. 109, 3-benzyl-2,6,9-trimethyl-4H,6H-thieno[2,3-e][1,2,4]triazolo[3,4-c][1,4]oxazepine], the IC50 in the test on RS4-11 (setting [2]) is 1 µM; at recombinant BRD4 BD2 it was 125 nM and 120 nM; in the test with MOLM-13 (setting [5]), 0.81 µM; in the test with MOLM-13 (setting [3]) it was 1.1 µM; on recombinant BRD4 BD1 (setting [1]), 99.6 nM and 93.8 nM.
As to `Cc1nnc2n1-c1sc(C#N)c(Cc3ccccc3)c1COC2` [Cpd. No. 110, 3-benzyl-9-methyl-4H,6H-thieno[2,3-e][1,2,4]triazolo[3,4-c][1,4]oxazepine-2-carbonitrile], the IC50 is 3.5 µM in the test on RS4-11 (setting [2]), 2320 nM at recombinant BRD4 BD2, 3.8 µM in the test on MOLM-13 (setting [3]) and 634 nM on recombinant BRD4 BD1 (setting [1]).
